# Experimental data reported in PMC5986654, “Combined HAT/EZH2 modulation leads to cancer-selective cell death” (Oncotarget, 2018).
# What was measured:
# [1] = molecular target: T1, CYP1A (Homo sapiens, UniProt P05177); experiment: Cytochrome P450 inhibition, CYP1A; type: in vitro ADME; details: human liver microsomes, probe ethoxyresorufin
# T1 construct: from tissue; host or cells: human liver microsomes
# Experimental: This provided a dose of 2 mg free base material/kg when Cytochrome p450 inhibition (5 isoform iC50 administered iv in a 5 mL/kg dosing volume. determination) mouse terminal ip pK study ADME-Tox Cytochrome P450 inhibition of Compound MC2884 was given ip at a dose of 2 mg/kg MC2884 using human liver microsomes as an estimation to a group of 24 normally fed male CD1 mice in a 10 mL/ of in vitro metabolism. kg injection volume. Terminal blood samples (> 230 μL) MC2884 (0.1 μM–25 μM) was incubated with were taken under CO2 from groups of 3 mice at each of 8 human liver microsomes and NADPH in the presence time-points post dose (0.083, 0.25, 0.5, 1, 2, 4, 8 and 24 h) of a cytochrome P450 isoform-specific probe substrate. and placed into heparinized tubes. Samples were placed on ice For the CYP2C9, CYP2C19, CYP2D6 and CYP3A4 for no longer than 30 min before centrifugation (10,000 rpm × specific reactions, the metabolites were monitored by 3 min). […]
# Cyp2C19 inhibition (0.1 mg/mL) and NADPH (1 mM) in the presence of the probe substrate midazolam (2.5 μM) for 5 min at Six test compound samples at concentrations 37° C. […] For the CYP1A incubations, the reactions microsomes (0.5 mg/mL) and NADPH (1 mM) in the were terminated by methanol, and the formation of the presence of the probe substrate mephenytoin (25 μM) metabolite, resorufin, was monitored by fluorescence for 60 min at 37° C. […]
# [2] = tested on: neuroblastoma SHSY5Y cells; experiment: Cell death induction in SHSY5Y cells; type: cell-based; details: 3 μM, 48 h
# Experimental: When tested in neuroblastoma SHSY5Y cells at tetrahydro-4H -pyran-4-one MC2912 failed in inducing
# 3 μM for 48 h, MC2884 and its analogues furnished cell death in SHSY5Y cells, whereas its thio-analogue
# (Supplementary SAR Table 1). In general, the SHSY5Y similarly to what observed in NB4 cells.
# than NB4 cells. Anyway, also in this cell line the death in both cell lines such as MC2910, 2912, 2909,
# (MC2909), and bis 3,5-dibromophenyl (MC2910) were acetylation and EZH2 deregulation (SAR Figure 2). In […]
# 3-phenyl-1-propan-1-one chain at N1 (MC3187), which 3).
# [3] = molecular target: CBP (Homo sapiens, UniProt Q92793); experiment: HAT in vitro assay, 10-dose IC50, CBP; type: biochemical; details: substrate Histone H3, 3 μM Acetyl-CoA; read-out: Compound IC50 CBP
# Sequence of CBP (Q92793 whole entry): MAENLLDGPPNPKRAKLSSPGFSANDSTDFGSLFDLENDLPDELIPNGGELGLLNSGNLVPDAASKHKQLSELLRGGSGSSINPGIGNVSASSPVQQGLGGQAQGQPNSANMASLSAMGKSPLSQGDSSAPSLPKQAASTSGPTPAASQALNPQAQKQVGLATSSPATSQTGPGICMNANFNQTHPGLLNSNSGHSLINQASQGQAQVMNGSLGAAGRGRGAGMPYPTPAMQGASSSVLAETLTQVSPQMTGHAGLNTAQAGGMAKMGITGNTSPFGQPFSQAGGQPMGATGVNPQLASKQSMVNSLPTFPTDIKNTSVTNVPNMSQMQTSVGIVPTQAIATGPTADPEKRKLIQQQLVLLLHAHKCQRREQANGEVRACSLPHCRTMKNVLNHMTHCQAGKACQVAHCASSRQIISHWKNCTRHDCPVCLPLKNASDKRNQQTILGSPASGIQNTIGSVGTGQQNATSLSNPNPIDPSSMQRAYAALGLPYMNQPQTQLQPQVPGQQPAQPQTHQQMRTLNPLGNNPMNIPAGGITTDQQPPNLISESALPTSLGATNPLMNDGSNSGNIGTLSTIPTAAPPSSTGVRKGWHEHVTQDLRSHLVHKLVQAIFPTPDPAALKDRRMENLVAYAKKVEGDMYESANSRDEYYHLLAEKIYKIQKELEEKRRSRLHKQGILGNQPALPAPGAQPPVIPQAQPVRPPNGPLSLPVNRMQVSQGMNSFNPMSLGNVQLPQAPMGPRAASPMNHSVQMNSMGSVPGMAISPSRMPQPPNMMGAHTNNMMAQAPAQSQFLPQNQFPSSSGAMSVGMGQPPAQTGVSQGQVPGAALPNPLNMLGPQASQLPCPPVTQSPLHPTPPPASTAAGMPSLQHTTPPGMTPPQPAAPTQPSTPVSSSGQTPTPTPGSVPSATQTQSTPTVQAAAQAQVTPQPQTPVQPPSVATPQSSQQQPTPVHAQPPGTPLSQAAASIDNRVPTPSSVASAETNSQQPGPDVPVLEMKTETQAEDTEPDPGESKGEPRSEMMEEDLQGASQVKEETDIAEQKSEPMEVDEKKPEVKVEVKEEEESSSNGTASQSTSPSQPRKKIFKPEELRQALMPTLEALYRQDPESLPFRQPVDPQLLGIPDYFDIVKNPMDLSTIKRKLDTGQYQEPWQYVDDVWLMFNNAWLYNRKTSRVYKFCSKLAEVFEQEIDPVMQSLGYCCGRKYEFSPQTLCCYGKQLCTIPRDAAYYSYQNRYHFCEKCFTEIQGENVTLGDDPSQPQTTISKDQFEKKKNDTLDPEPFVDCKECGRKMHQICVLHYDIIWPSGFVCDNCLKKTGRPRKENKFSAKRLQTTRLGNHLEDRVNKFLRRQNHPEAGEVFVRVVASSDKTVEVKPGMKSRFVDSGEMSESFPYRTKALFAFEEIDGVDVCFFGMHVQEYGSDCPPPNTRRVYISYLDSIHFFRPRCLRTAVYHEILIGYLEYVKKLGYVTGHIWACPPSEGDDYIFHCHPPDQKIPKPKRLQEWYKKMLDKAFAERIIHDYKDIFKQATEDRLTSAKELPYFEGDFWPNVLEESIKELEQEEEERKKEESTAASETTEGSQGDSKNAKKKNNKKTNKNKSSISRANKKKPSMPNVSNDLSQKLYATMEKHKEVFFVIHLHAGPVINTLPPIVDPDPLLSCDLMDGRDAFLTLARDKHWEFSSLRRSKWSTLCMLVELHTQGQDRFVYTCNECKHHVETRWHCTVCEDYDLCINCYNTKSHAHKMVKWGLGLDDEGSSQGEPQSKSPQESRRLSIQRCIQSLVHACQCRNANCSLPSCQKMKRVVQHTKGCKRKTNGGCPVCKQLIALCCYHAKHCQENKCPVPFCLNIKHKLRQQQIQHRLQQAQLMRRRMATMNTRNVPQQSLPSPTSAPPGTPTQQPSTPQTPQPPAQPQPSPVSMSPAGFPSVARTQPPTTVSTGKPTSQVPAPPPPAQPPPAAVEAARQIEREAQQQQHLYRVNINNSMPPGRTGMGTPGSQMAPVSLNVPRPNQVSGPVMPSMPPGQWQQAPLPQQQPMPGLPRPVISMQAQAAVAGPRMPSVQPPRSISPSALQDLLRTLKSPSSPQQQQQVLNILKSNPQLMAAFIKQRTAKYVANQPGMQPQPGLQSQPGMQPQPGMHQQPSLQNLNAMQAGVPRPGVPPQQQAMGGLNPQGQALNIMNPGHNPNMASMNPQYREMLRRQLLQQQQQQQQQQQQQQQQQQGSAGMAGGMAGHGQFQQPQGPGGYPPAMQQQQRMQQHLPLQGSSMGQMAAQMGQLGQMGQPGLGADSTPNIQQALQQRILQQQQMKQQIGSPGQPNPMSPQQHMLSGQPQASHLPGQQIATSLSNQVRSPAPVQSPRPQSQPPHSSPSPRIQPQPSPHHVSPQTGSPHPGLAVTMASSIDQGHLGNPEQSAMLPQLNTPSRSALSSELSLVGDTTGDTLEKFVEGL
# Experimental: For HAT in vitro assay, MC2884 activity was also tested in vitro and IC50 was calculated as indicated in the scheme. […] Reactions were carried out at 3 μM Acetyl-CoA. Empty cells indicate no inhibition or compound activity that could not be fit to an IC50 curve.
# T1 sequence (P05177 2-516 limits assumed): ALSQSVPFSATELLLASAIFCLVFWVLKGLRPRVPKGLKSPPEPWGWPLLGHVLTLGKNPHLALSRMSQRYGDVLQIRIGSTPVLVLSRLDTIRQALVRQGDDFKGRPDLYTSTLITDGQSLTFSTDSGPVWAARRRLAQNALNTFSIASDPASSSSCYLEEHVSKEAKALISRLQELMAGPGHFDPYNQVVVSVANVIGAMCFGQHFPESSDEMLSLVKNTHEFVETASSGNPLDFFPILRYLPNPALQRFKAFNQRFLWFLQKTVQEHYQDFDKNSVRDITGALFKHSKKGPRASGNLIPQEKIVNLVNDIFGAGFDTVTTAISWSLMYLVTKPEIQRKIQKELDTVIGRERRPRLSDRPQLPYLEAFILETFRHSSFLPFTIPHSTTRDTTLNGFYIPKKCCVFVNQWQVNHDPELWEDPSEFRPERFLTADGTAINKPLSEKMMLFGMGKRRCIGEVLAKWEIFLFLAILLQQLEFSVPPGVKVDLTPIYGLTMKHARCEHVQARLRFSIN
compound,measurement,setting,value
O=C1/C(=C/c2cccc(Br)c2)CN(Cc2ccccc2)C/C1=C\c1cccc(Br)c1 [MC2884],IC50,[1],> 25 µM
same,% Cell death SHSY5Y cells,[2],19.1%
same,IC50,[3],3.27 µM
